Residues, ends and D or L forms follow the SMILES beside them.
Tests used:
SH2D2A SH2 domain = SH2D2A SH2 domain (Homo sapiens, UniProt Q9NP31); test: FP saturation binding assay
SH2D1A SH2 domain = target: T1, SH2D1A SH2 domain (Homo sapiens, UniProt O60880); test: FP saturation binding assay; conditions: for KD range of recruitment of SH2D1A (SHD1A [sic]): FP saturation assay
T1 sequence (O60880 6-104 limits assumed): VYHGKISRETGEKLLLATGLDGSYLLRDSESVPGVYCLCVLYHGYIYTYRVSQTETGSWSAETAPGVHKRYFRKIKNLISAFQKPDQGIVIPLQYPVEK

[1] = target: T2, PLCG1-NC tandem SH2 domains (Homo sapiens, UniProt P19174); test: FP saturation binding assay; conditions: Protein PLCG1-NC; FP saturation binding, high-confidence ErbB interactions; mean over replicate hits
T2 construct: the tandem protein was included in our analysis with all internal amino acids linking the domains; 6X His; thioredoxin; made in house; host or cells: E. coli BL21(DE3)pLysS
T2 sequence (P19174 550-756 limits assumed): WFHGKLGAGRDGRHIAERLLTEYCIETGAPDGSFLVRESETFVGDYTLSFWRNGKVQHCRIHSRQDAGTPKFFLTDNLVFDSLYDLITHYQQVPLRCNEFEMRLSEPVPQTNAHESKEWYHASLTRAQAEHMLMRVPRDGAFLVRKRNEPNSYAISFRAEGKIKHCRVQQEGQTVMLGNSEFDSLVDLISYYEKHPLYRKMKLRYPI
Procedure: (See Figure 1A) Rhodamine-labeled peptides were dissolved in assay buffer (20 mM HEPES, 100 mM KCl, 0.1% Tween-20, 5 mM DTT, pH 7.8), diluted to a concentration of 20 nM, and plated into black 384-well plates (Corning, Corning, NY) at 5 µL/well using a Perkin Elmer EP3 pipetting workstation (V&P Scientific, Inc., San Diego, CA). SH2, PTB, and thioredoxin control proteins were plated into the first column of 2 mL 96-well plates (Corning) at a concentration of 20 µM and serially diluted 1∶2 into freezing buffer (300 mM NaCl, 50 mM Na2PO4, pH 8, 20% glycerol v/v) eleven times using a Tecan Freedom EVO 100 workstation (Tecan, Männedorf, Switzerland). For the interaction assay, 5 µL of each of the twelve protein concentrations was added to the peptide-containing 384-well plates via the EP3 resulting in a protein dilution range of 0.002–10 µM and a final volume of 10 µL; peptide concentration was fixed at 10 nM. […] Experimental values were output as millipolarization (mP) units and imported into MATLAB (The MathWorks, Inc., Natick, MA) in which equation (1) was used to determine dissociation constants (KDs) for each protein/peptide pairing by least squares nonlinear regression. [drawing 1] (1)
(§1) FP was described by the following equation: P=Iparallel-IperpendicularIparallel+Iperpendicular, where “P” denotes polarization, and “I” denotes the fluorescent intensity relative to the plane of incident light. Experimental values were output as millipolarization (mP) units and imported into MATLAB where the following equation was used to determine dissociation constants (KDs) for each protein/peptide pairing by least squares nonlinear regression:
(§2) Pobs=Pmax∙ProteinKD+Protein [picture] (1)
Peptides were initially tested for systematic plate effects across protein dilutions and nonspecific binding to thioredoxin by linear regression analysis and any effects were regressed out. The median baseline control polarization value for each plate was then subtracted from each data point to make each binding curve intersect at zero. Plates with excessive variation in baseline control polarizations on both a global and run-specific manner (Dixon’s Q test, p < 0.05) were excluded from further analysis. Outliers in each binding curve were identified and removed using an iterative procedure as follows. The residuals for each fit were used to calculate a global standard deviation of the residuals (GSDR) for each concentration of SH2 domain over all interactions, and individual data points with residuals < or > two GSDR from the global mean residual were flagged as outliers. The outlier with the largest residual from each interaction was removed and nonlinear regression was again performed. This procedure was repeated if additional outliers were identified for an interaction, discarding the interaction if the number of outliers exceeded three. […] In order to further control our false positive rate against hidden confounding variables producing binding artifacts, we sought to determine whether there was a significant relationship between the strength of an interaction and its technical replication rate at our stringent significance and filtering thresholds. We performed logistic regression on the proportion of successful replicates for each interaction query against KD for all interactions (Figure S15A). […] “High-confidence” FP interactions are defined as those having 1 - P(Observed Replication Rate | Expectation) > 0.5 and that have replicated at least twice across independent FP runs. […] The compiled FP data were organized into heatmaps generated by MATLAB and relative binding strength (µM). Peptides without at least one positive hit were classified as “no interaction” if there was no homologous sequence (i.e. identical at the +1 to +4 positions relative to the phosphotyrosine) that produced a positive interaction within the ErbB receptor family.

[2] = target: PIK3R2-NC tandem SH2 domains (Homo sapiens, UniProt O00459); test: FP saturation binding assay
PIK3R2-NC tandem SH2 domains, sequence (O00459 330-716 limits assumed): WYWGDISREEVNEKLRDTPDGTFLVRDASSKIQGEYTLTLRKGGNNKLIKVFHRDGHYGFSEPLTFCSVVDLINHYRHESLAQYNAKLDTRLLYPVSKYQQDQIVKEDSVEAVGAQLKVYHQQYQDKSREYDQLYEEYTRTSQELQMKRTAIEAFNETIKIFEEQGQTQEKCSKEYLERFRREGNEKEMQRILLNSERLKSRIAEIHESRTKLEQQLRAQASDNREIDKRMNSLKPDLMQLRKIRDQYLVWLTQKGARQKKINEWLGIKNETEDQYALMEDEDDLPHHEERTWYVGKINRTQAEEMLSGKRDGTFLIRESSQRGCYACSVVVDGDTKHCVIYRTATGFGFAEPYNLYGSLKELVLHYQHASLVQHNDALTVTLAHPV

[3] = target: T3, PIK3R3-NC tandem SH2 domains (Homo sapiens, UniProt Q92569); test: FP saturation binding assay; conditions: Protein PIK3R3-NC; FP saturation binding, high-confidence ErbB interactions; mean over replicate hits
T3 construct: the tandem protein was included in our analysis with all internal amino acids linking the domains; 6X His; thioredoxin; made in house; host or cells: E. coli BL21(DE3)pLysS
Procedure: (See Figure 1A) Rhodamine-labeled peptides were dissolved in assay buffer (20 mM HEPES, 100 mM KCl, 0.1% Tween-20, 5 mM DTT, pH 7.8), diluted to a concentration of 20 nM, and plated into black 384-well plates (Corning, Corning, NY) at 5 µL/well using a Perkin Elmer EP3 pipetting workstation (V&P Scientific, Inc., San Diego, CA). SH2, PTB, and thioredoxin control proteins were plated into the first column of 2 mL 96-well plates (Corning) at a concentration of 20 µM and serially diluted 1∶2 into freezing buffer (300 mM NaCl, 50 mM Na2PO4, pH 8, 20% glycerol v/v) eleven times using a Tecan Freedom EVO 100 workstation (Tecan, Männedorf, Switzerland). For the interaction assay, 5 µL of each of the twelve protein concentrations was added to the peptide-containing 384-well plates via the EP3 resulting in a protein dilution range of 0.002–10 µM and a final volume of 10 µL; peptide concentration was fixed at 10 nM. Peptide/protein samples were incubated for 20 minutes at room temperature in the dark and fluorescence polarization (FP) was measured in an Analyst GT multimode reader (Molecular Devices, Sunnyvale, CA) with excitation and emission wavelengths of 530 nm and 555 nm, respectively. Experimental values were output as millipolarization (mP) units and imported into MATLAB (The MathWorks, Inc., Natick, MA) in which equation (1) was used to determine dissociation constants (KDs) for each protein/peptide pairing by least squares nonlinear regression. [drawing 1] (1)
as §1, §2
Peptides were initially tested for systematic plate effects across protein dilutions and nonspecific binding to thioredoxin by linear regression analysis and any effects were regressed out. The median baseline control polarization value for each plate was then subtracted from each data point to make each binding curve intersect at zero. Plates with excessive variation in baseline control polarizations on both a global and run-specific manner (Dixon’s Q test, p < 0.05) were excluded from further analysis. Outliers in each binding curve were identified and removed using an iterative procedure as follows. The residuals for each fit were used to calculate a global standard deviation of the residuals (GSDR) for each concentration of SH2 domain over all interactions, and individual data points with residuals < or > two GSDR from the global mean residual were flagged as outliers. The outlier with the largest residual from each interaction was removed and nonlinear regression was again performed. This procedure was repeated if additional outliers were identified for an interaction, discarding the interaction if the number of outliers exceeded three. […] In order to further control our false positive rate against hidden confounding variables producing binding artifacts, we sought to determine whether there was a significant relationship between the strength of an interaction and its technical replication rate at our stringent significance and filtering thresholds. We performed logistic regression on the proportion of successful replicates for each interaction query against KD for all interactions (Figure S15A). […] This is related to the observation that the majority of interactions detected by FP are tight (Figure S15B). With this logit model, we assigned a probability to each peptide-protein interaction in our data by using a binomial proportions test to compare the observed versus the expected replication rate at the particular KD of that interaction (Table S4). […]

PIK3R3-C SH2 domain = target: T4, PIK3R3-C SH2 domain (Homo sapiens, UniProt Q92569); test: biochemical; type: binding; conditions: Protein PIK3R3-C; FP saturation binding, high-confidence ErbB interactions; mean over replicate hits
T4 construct: thioredoxin; made in house; host or cells: E. coli BL21(DE3)pLysS

RASA1-N SH2 domain = target: T5, RASA1-N SH2 domain (Homo sapiens, UniProt P20936); test: FP saturation binding assay
T5 sequence (P20936 181-272 limits assumed): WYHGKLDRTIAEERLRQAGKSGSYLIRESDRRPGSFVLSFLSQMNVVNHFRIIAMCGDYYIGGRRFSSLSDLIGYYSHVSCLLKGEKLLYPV

SH2D1B SH2 domain = target: T6, SH2D1B SH2 domain (Homo sapiens, UniProt O14796); test: FP saturation binding assay; conditions: FP saturation assay
T6 sequence (O14796 5-101 limits assumed): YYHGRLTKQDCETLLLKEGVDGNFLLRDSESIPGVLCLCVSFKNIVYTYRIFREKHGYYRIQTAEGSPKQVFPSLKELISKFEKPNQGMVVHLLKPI

SH2D2A SH2 domain, sequence (Q9NP31 95-186 limits assumed): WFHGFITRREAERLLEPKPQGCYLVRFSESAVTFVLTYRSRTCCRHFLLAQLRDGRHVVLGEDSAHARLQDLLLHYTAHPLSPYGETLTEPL

Molecule `CC[C@H](C)[C@H](NC(=O)CNC(=O)[C@H](CC(=O)O)NC(=O)[C@H](Cc1ccc(OP(=O)(O)O)cc1)NC(=O)[C@@H]1CCCN1C(=O)[C@H](CCCCN)NC(=O)[C@H](CO)NC(=O)CN)C(=O)N1CCC[C@H]1C(=O)N[C@@H](C)C(=O)N[C@@H](CO)C(=O)N[C@@H](CCC(=O)O)C(=O)N[C@@H](CC(=O)O)C(=O)O` [ErbB1 915 13-mer] (HELM PEPTIDE1{G.S.K.P.[O=C([C@H](Cc1ccc(OP(=O)(O)O)cc1)N[*:1])[*:2]].D.G.I.P.A.S.E.D}$$$$V2.0) has a Kd (SH2D2A SH2 domain) of 4.77 µM and a Kd (SH2D1A SH2 domain) of 14.5 µM.
Work on `CC[C@H](C)[C@H](NC(=O)[C@H](Cc1ccc(OP(=O)(O)O)cc1)NC(=O)[C@H](CCC(=O)O)NC(=O)[C@@H]1CCCN1C(=O)[C@@H](NC(=O)[C@@H]1CCCN1)C(C)C)C(=O)N[C@@H](CC(N)=O)C(=O)N[C@@H](CCC(N)=O)C(=O)N[C@@H](CO)C(=O)N[C@H](C(=O)N1CCC[C@H]1C(=O)N[C@@H](CCCCN)C(=O)N[C@@H](CC(=O)O)C(=O)O)C(C)C` [ErbB1 1092 13-mer] yielded a Kd [1] of 7.58 µM, a Kd (SH2D2A SH2 domain) of 10.9 µM and a Kd [2] of 11.2 µM. For the same molecule, the Kd [3] was 8.64 µM.
In the case of `CC[C@H](C)[C@H](NC(=O)[C@H](CCCNC(=N)N)NC(=O)[C@H](Cc1c[nH]cn1)NC(=O)[C@@H](N)CC(C)C)C(=O)N[C@@H](Cc1ccc(OP(=O)(O)O)cc1)C(=O)N[C@H](C(=O)N[C@@H](Cc1c[nH]cn1)C(=O)N[C@@H](CCC(N)=O)C(=O)N[C@@H](CO)C(=O)N[C@@H](CC(=O)O)C(=O)N[C@H](C(=O)N[C@@H](Cc1c[nH]c2ccccc12)C(=O)N[C@@H](CC(=O)O)C(=O)O)C(C)C)[C@@H](C)O` [ErbB1 891 13-mer] (HELM PEPTIDE1{L.H.R.I.[O=C([C@H](Cc1ccc(OP(=O)(O)O)cc1)N[*:1])[*:2]].T.H.Q.S.D.V.W.D}$$$$V2.0), the Kd (SH2D2A SH2 domain) is reported as 13.4 µM.
`CSCC[C@H](NC(=O)[C@H](Cc1ccc(OP(=O)(O)O)cc1)NC(=O)[C@H](CCC(=O)O)NC(=O)[C@H](Cc1ccc(O)cc1)NC(=O)[C@H](CCC(=O)O)NC(=O)[C@@H](N)CCC(=O)O)C(=O)N[C@@H](CC(N)=O)C(=O)N[C@@H](CCCNC(=N)N)C(=O)N[C@@H](CCCNC(=N)N)C(=O)N[C@@H](CCCNC(=N)N)C(=O)N[C@@H](CCCNC(=N)N)C(=O)N[C@@H](Cc1c[nH]cn1)C(=O)N[C@@H](CC(=O)O)C(=O)O` [ErbB3 1199 13-mer] (HELM PEPTIDE1{E.E.Y.E.[O=C([C@H](Cc1ccc(OP(=O)(O)O)cc1)N[*:1])[*:2]].M.N.R.R.R.R.H.D}$$$$V2.0) showed a Kd (SH2D2A SH2 domain) of 13.9 µM.
In the case of `NCCCC[C@H](NC(=O)[C@@H]1CCCN1C(=O)[C@H](Cc1ccccc1)NC(=O)[C@H](Cc1ccccc1)NC(=O)[C@H](CC(=O)O)NC(=O)[C@H](CCC(N)=O)NC(=O)[C@H](CCC(N)=O)NC(=O)[C@H](Cc1ccc(OP(=O)(O)O)cc1)NC(=O)[C@H](CC(=O)O)NC(=O)[C@@H]1CCCN1C(=O)[C@H](CC(N)=O)NC(=O)[C@@H](N)CC(=O)O)C(=O)N[C@@H](CC(=O)O)C(=O)O` [ErbB1 1172 13-mer] (HELM PEPTIDE1{D.N.P.D.[O=C([C@H](Cc1ccc(OP(=O)(O)O)cc1)N[*:1])[*:2]].Q.Q.D.F.F.P.K.D}$$$$V2.0), the Kd [1] is reported as 7.79 µM, the Kd (PIK3R3-C SH2 domain) is reported as 12.6 µM and the Kd (RASA1-N SH2 domain) is reported as 4.17 µM.
In the case of LDEApYVMAGVGS [ErbB2 pY772], the “KD range of recruitment of SH2D1B” value (SH2D1B SH2 domain) is reported as “in the nM KD range” and the “KD range of recruitment of SH2D1A (SHD1A [sic])” value (SH2D1A SH2 domain) is reported as “in the nM KD range”.
With FGTVpYKGIWVPEd [ErbB4 pY733] the “KD range of recruitment of SH2D1B” value (SH2D1B SH2 domain) was “in the nM KD range” and the “KD range of recruitment of SH2D1A (SHD1A [sic])” value (SH2D1A SH2 domain) was “in the nM KD range”.

Reference: publication PMC3433420 (PLoS ONE, 2012)
